What all share (type): cell-based, mouse
Assay [1] concerns LC3-I/LC3-II, p-S6, p-S6K, AID. Put plainly: Immunoblot of LC3-I/LC3-II, p-S6, p-S6K and AID in activated murine B cells. Here is the method: For immunoblotting, cells were lysed in lysis buffer with protease and phosphatase inhibitors (Sigma-Aldrich). Protein concentration in samples were quantified by BCA assay (Thermo Fisher Scientific) before loading the samples for electrophoresis and membrane transfer. The transferred membrane was blocked with TBST (0.1% Tween 20) containing 5% BSA for 1 hour at room temperature. The membrane was incubated with primary antibodies overnight including anti-p-S6 (Ser235/Ser236, D57.2.2E; Cell Signaling), anti-p-p70 S6 kinase (Thr389, 108D2; Cell Signaling), anti-p-4E-BP1 (Thr37/46, 236B4; Cell Signaling), anti-LC3α/β (G-4; Santa Cruz); anti-p-ULK1 (Ser757, D706U; Cell Signaling), anti-AID (EK2 5G9; Cell Signaling), anti-β-actin (13E5; Sigma-Aldrich), and anti-SCD2 (H-12; Santa Cruz). Then, the membrane was washed and incubated with the corresponding secondary antibody for subsequent enhanced chemiluminescence (ECL; Thermo Fisher) exposure. The band intensity of all the immunoblot was analyzed by ImageJ software.
(In western blotting, separated proteins are transferred to a membrane and probed.)

The test system of assay [2] is activated murine B cells. Put plainly: TMRM staining of mitochondrial membrane potential in activated murine B cells. The conditions noted are these: 72 hours; for mitochondrial membrane potential (TMRM): substance alone. Here is the method:
For analysis of surface markers, cells were stained in PBS containing 1% (w/v) bovine serum albumin on ice for 30 minutes, with anti-IgG1 (RMG1-1, Biolegend), anti-CD19 (ID3, Biolegend) anti-B220 (RA3-6B2, Biolegend), anti-CD4 (GK1.5, Biolegend), anti-CD8 (53-6.7, Biolegend), anti-CD25 (PC16, Biolegend), anti-GL7 (GL-7, Biolegend), anti-CD95 (Jo2, BD Biosciences), anti-CD138 (281-2, Biolegend), anti-IgD (11-26c.2a, Biolegend), anti-PD-1 (J43, ThermoFisher), anti-IgM (II/41, ThermoFisher). Antigen specific GC response was detected with tetramer NP-phycoerythrin conjugated with PE (Biosearch Technologies). CXCR5 was stained with biotinylated anti-CXCR5 (2G8) followed by staining with streptavidin-conjugated PE (both from BD Biosciences). Cell viability was assessed using the Fixable Dye Ghost 510 (Tonbo Bioscience) or Annexin V cell apoptosis kit with 7-AAD (ThermoFisher) following the manufacturer's protocol. Phosflow staining for phospho-S6 (S235/236) was performed using Phosflow Fix/Perm kit (BD Biosciences). Mitochondrial potential was measured by staining with 20 nM TMRM (ThermoFisher) following manufacturer's instructions. Flow cytometry was performed on the LSR II, LSR Fortessa (BD Biosciences) or Attune NxT (ThermoFisher) cytometers, and analysis was performed using FlowJo software (Tree Star).

Assay [3] has as its system activated murine B cells. Put plainly: Seahorse OCR / ECAR in activated murine B cells. The procedure: The bioenergetic activities of the OCR and ECAR were measured using a Seahorse XFe96 Extracellular Flux Analyzed following established protocols (Agilent). Briefly, B cells were seeded at 200,000 cells/well on Cell-Tak (Corning) coated XFe96 plate with fresh XF media (Seahorse XF RPMI medium containing 10 mM glucose, 2 mM L-glutamine, and 1 mM sodium pyruvate, PH 7.4; all reagents from Agilent). OCR was measured in the presence of Oligomycin (1.5 μM; Sigma-Aldrich), FCCP (1.5 μM; Sigma-Aldrich), and Rotenone (1 μM; Sigma-Aldrich)/Antimycin A (1 μM; Sigma-Aldrich) in Mito Stress assay. For ECAR measurement, B cells were seeded in XFe96 plate with fresh Seahorse XF RPMI medium with 2 mM L-glutamine (PH 7.4), and treated with glucose (10 mM; Agilent), Oligomycin (1.5 and 2-DG (50 mM; Sigma-Aldrich) orderly in Glycolysis Stress assay.

The test system of a further assay is Chop, Atf4, Sqstm1. Put plainly: RT-PCR of ER stress-related genes in activated B cells. Here is the method:
For mRNA analysis, total mRNA was isolated from mouse and human B cells by RNeasy Micro kit (Qiagen), reverse transcribed from mRNA to cDNA for subsequent real-time PCR analysis. Scd1, Scd2, Fasn, Acaca, Chop, Atf4, Sqstm1 in mouse B cells and Scd, Fasn, Acaca expression in human B cells were measured by real-time PCR with a Bio-Rad Realtime PCR system. β-actin expression was used as control.

SMILES strings stand for the structures.

For the molecule `CCCCCCCC/C=C\CCCCCCCC(=O)O` [OA, oleic acid], the “levels of p-S6K and p-S6 with exogenous OA” value in assay [1] (SSI-4 treated or SCD1/2 deficient B cells plus OA) is “restored”. Also, in assay [1] (SSI-4 treated or SCD deficient B cells plus OA), the “increased LC3-II/LC3-I ratio with exogenous OA” value is listed as “completely rescued”. Further, in the assay with activated murine B cells [2] (SSI-4 plus OA), the “mitochondrial membrane potential (TMRM) under SCD inhibition with exogenous OA” value is recorded as “corrected”. The “mitochondrial membrane potential (TMRM)” value in the assay with activated murine B cells [2] was “able to increase mitochondrial membrane potential”. The “OA mediated increase of basal respiration with titrated doses” value in the assay with activated murine B cells [3] (exogenous OA 1, 10, 20 and 50) is recorded as “dose dependent”. Moreover, the “glycolytic capacity of activated murine B cells” value in the assay with activated murine B cells [3] (exogenous fatty acid, 48 h, Glycolysis Stress test) is reported as “increased the glycolytic capacity”. In addition, the “B cell respiration (OCR)” value in the assay on activated murine B cells [3] (exogenous fatty acid, 48 h, CpG/IL-4/IL-5 (PO: CpG and anti-IgM/anti-CD40) stimulation) is on record as “enhanced B cell respiration”. For the same molecule, in the assay on Chop, Atf4, Sqstm1 (SSI-4 plus OA), the “ER stress-related gene upregulation with exogenous OA” value was “reduced these genes upregulation”.
Turning to `CNC(=O)c1ccnc(NC(=O)N2CCC(Oc3ccccc3Cl)CC2)c1` [SSI-4, 2-{[4-(2-Chlorophenoxy)piperidine-1-carbonyl]amino}-N-methylpyridine-4-carboxamide], the “levels of p-S6K and p-S6” value in assay [1] (SSI-4 treated B cells) is given as “decreased”. Moreover, in assay [1] (SSI-4 treated B cells vs control cells), the LC3-II/LC3-I ratio entry was “substantial increase”. In addition, the “expression of activation-induced cytidine deaminase (AID)” value in assay [1] (SSI-4 treatment) is given as “Reduced expression”. For the same molecule, the “mitochondrial membrane potential (TMRM)” value with activated murine B cells [2] is recorded as “reduced mitochondrial membrane potential”. Also, in the assay with activated murine B cells [3] (SSI-4, 48 hours), the “B cell glycolysis (ECAR) under SCD inhibition” value is reported as “strongly suppressed” and the “B cell respiration (OCR) under SCD inhibition” value is “strongly suppressed”. Besides, the “ER stress-related genes Chop, Atf4, Sqstm1” value with Chop, Atf4, Sqstm1 (SSI-4 treatment) is reported as “increased”.

(Values after US11833144B2, “Treating autoimmune disease” (Mayo Foundation for Medical Education and Research, priority 2020, dated 2023).)
